Patent EP2698385A1, “Detection of synthetic cannabinoids” (priority 2012, dated 2014)

System: antibodies raised to Immunogens I & II
Assay: Competitive ELISA (Example 19), sensitivity and cross-reactivity of selected molecules, one result for both antibodies
Format: binding, sheep
Conditions: result in words
Method: Aqueous solutions of the immunogens prepared in examples 5 and 13 were formulated with Freund's Complete Adjuvant (FCA) to form emulsions consisting of 2mg/ml Immunogen I and 2mg/ml of Immunogen II in 50%(v/v) FCA. Three sheep were immunised with each emulsion (1° immunisations), 0.25ml being intramuscularly injected at four sites in the rump of each animal. Subsequent immunisations (boosts 2-8) contained 1mg/ml Immunogen I and 1mg/ml Immunogen II. All boosts were emulsified in 50%(v/v) Freund's Incomplete Adjuvant (FIA) and administered to the appropriate sheep in the same manner as the 1° immunisations, at monthly intervals. Blood sampling took place 7-14 days after each boost. Each sample was processed to produce antiserum, which was further purified by caprylic acid and ammonium sulphate precipitation to yield an immunoglobulin (Ig) fraction. The Ig fraction was evaluated by competitive ELISA microtiter plate assay, as described in example 19 below.
Example 19: Development of competitive ELISA for JWH synthetic cannabinoids and metabolites. • (a) The wells of an enhanced binding 96 well polystyrene microtiter plate were coated with the Ig fraction of the antiserum raised to Immunogen I (Hapten A-BTG - example 5) and diluted in 10mM Tris, pH8.5 (125µl/well). The appropriate antibody coating concentration was determined using standard ELISA checkerboard techniques. The plate was incubated for 2 hours at 37°C, washed 4 times over a 10-minute period with Tris buffered saline containing Tween 20 (TBST) and tapped dry. Standard solutions of JWH synthetic cannabinoids, metabolites and selected molecules were prepared in TBST and 50µl of each was added to the appropriate wells. 75µl of conjugate (Hapten A-HRP) diluted in Tris buffer containing EDTA, D-mannitol, sucrose, thimerosal and BSA, was added to each of the wells. The appropriate dilution of conjugate was also determined using standard ELISA checkerboard techniques. The plate was incubated at 25°C for 1 hour. The excess unbound conjugate was removed by washing 6 times over a 10-minute period with TBST and tapped dry. 125µl of tetramethylbenzedine (TMB) substrate solution was added to each well of the plate that was then incubated for 15-20 minutes in the dark at room temperature. The reaction was terminated by addition of 125µl of 0.2M sulphuric acid to each well. The absorbance was then measured at 450nm using a microtiter plate reader. Employing each series of standards, calibration curves were generated and these were used to determine the specificity of the immunoassay for the JWH synthetic cannabinoids, metabolites and selected molecules. The results of this study are presented in Tables 1 to 3, cross-reactivity being calculated according to the following formula: %CR = […] /IC50,CR X 100 [formula] Where %CR is the percentage cross-reactivity, IC50, YWH-018 is the concentration of JWH-018 that causes 50% displacement of signal and IC50, CR is the concentration of JWH synthetic cannabinoid/metabolite/selected molecule that causes 50% displacement of signal.
Table 2: Data generated from a competitive microtiter plate assay for JWH synthetic cannabinoids and metabolites, employing antiserum raised to Immunogen I (Hapten A-BTG) and conjugate (Hapten A-HRP) as detection reagent. • (c) The resulting competitive ELISA for synthetic cannabinoids and metabolites was further employed to analyse urine and serum samples from 20 patients (Table 3). • (d) The resulting competitive ELISA for synthetic cannabinoids and metabolites was also employed to test for the 5-fluoropentyl derivative of JWH-018, (1-(5-fluoropentyl)indol-3yl (1-naphthyl) methanone (Table 4).

SMILES	binding / cross-reaction with antibodies raised from Immunogens I and II
O=C(O)CCCCn1cc(C(=O)c2cccc3ccccc23)c2ccccc21 [JWH-018 N-pentanoic acid metabolite]	bind
CCCCCn1cc(C(=O)c2ccc(Cl)c3ccccc23)c2ccccc21 [JWH-398]	bind
